Results taken from patent US20250204553A1, “FEED AND METHODS FOR CONTROLLING HEARTWORM INFECTIONS IN A MAMMAL” (In the Bowl Animal Health, Inc., priority 2022, published 2025).

Assays:
[1] = test system: Dirofilaria immitis; test: Efficacy of monepantel administered per os to dogs for treatment and control of Dirofilaria immitis; type: in vivo; settings: all 12 dogs; daily oral 0.083 mg/kg and 0.83 mg/kg up to Day 179; inoculated with 50 L3 D. immitis on Day -28 or Day 0; counted on or after Day 180; expected result
[2] = test system: Dirofilaria immitis; test: Efficacy of moxidectin administered per os to dogs for treatment and control of Dirofilaria immitis; type: in vivo; settings: all 12 dogs; daily oral 0.8 μg/kg and 1.6 μg/kg up to Day 179; inoculated with 50 L3 D. immitis on Day -28 or Day 0; counted on or after Day 180; expected result
[3] = in vivo; cited from earlier work

Row | Compound | heartworms recovered [1] | heartworms recovered [2] | terminal half-life [3]
1 | C[C@](C#N)(COc1cc(C#N)ccc1C(F)(F)F)NC(=O)c1ccc(SC(F)(F)F)cc1 [monepantel, N-[(2S)-2-cyano-1-[5-cyano-2-(trifluoromethyl)phenoxy]propan-2-yl]-4-(trifluoromethylsulfanyl)benzamide] | 0 | – | –
2 | CO/N=C1\C[C@]2(C[C@@H]3C[C@@H](C/C=C(\C)C[C@@H](C)/C=C/C=C4\CO[C@@H]5[C@H](O)C(C)=C[C@@H](C(=O)O3)[C@]45O)O2)O[C@H](/C(C)=C/C(C)C)[C@H]1C [moxidectin] | – | 0 | approximately 13.9 days
3 | ivermectin | – | – | 43.2 h
